Measurements published in patent US5002942A, “1,5-benzothiazepine derivatives, their preparation and their use in the treatment of cardiovascular disorders” (Sankyo Company, Limited, priority 1988, dated 1991).

Columns and labels:
[1] = test system: SHR (spontaneously hypertensive rats); assay: Antihypertensive action in SHR; format: in vivo; conditions: conscious male SHR, hydrochlorides, 24 hours
Description: Male SHR (spontaneously hypertensive rats), 23 to 30 weeks old, were anesthesized with sodium pentobarbital 50 mg/kg intraperitoneal administration), and a polyethylene cannula was inserted through the left femoral artery into the abdominal aorta. The other end of the cannula was led out of the body and fixed at the back of the neck. One week after the operation, when the animal had recovered from the stress of the surgery, the other end of the cannula was connected to a blood pressure measuring device, which was constructed according to the directions of Laffan et al. [Laffan, P.J., Peterson A., Hitch S,W. and Jeunelot C., Cardiovascular Res. 6. 319-324 (1972)], but with slight modifications. The blood pressure and heart rate of the conscious and […] SHR were measured. After the blood pressure and the heart rate had stabilised for more than one hour, the test drug was administered by […]. After administration of the test sample, the blood pressure and the heart rate were measured every 15 minutes over a period of 24 hours. The maximum decrease in blood pressure and the half-time of the blood pressure lowering activity thus determined are shown in Table 6.
All of the test compounds were employed as the hydrochlorides.

calcium channel = target: T1, calcium channel (Cavia porcellus, UniProt O35505); assay: Calcium channel blocking action (calcium-induced contraction of excised taenia coli); conditions: 0.5 h, test compound 10^-8 g/ml, 30 minutes incubation, guinea pig taenia coli, hydrochlorides (Example 34: fumarate)
T1 construct: The taenia coli excised from a male guinea pig; from tissue; host or cells: guinea pig taenia coli (excised smooth muscle strip)
Description: The taenia coli excised from a male guinea pig weighing from 250 to 300 g was cut into a length of 6 to 7 mm and suspended in an organ bath filled with Tylord's solution (sodium chloride 97 mM, potassium chloride 40 mM, sodium hydrogen carbonate 11.9 mM, disodium hydrogen phosphate 0.4 mM, glucose 5.5 mM; pH 7.1). The bath solution contained no calcium ions and was aerated with a mixture of 95% oxygen and 5% carbon dioxide by volume. To this solution were added 10 and 30 mM solutions of calcium chloride at 30 minute intervals to obtain a final concentration of 0.4 mM. The tension which developed 1n the taenia coli was measured by an isometric transducer. The organ bath was then washed twice or more with Tylord's solution containing no calcium ions after which it was allowed to equilibrate for 30 minutes. After the muscle had stabilised, test compound dissolved in physiological saline was added to the bath to a final concentration of 10^-8 g/ml, and the bath was incubated for 30 minutes. 30 and 100 mM solutions of calcium chloride were again added to the bath, and the developed tension was measured. From the magnitude of the calcium-induced contraction before and after the test drug had been added the inhibitory rate was calculated using the following formula: [formula] where: Co=contraction induced by calcium ion before a test drug was added: and
Ct=contraction induced by calcium ion after the test drug had been added.
In addition to the compounds of the invention, we also carried out the same test with the following compounds of the prior art: (±)-diltiazem, […], (±)-8-chlorodiltiazem (8-Cl-diltiazem). (±)-8-methoxydiltiazem (8-MeO-diltiazem) and (±)-8-benzyloxydiltiazem (8-BzO-diltiazem).
In the Table, the compounds of the invention are identified by the number of the one of the foregoing Examples in which the compound was prepared. The prior art compounds are identified by the abbreviated generic names shown above in parentheses.
All of the compounds except for that of Example 34 were employed as the hydrochlorides; that of Example 34 was employed as the fumarate.

[2] = Rattus norvegicus, po, Dose 30 mg/kg, read-out: Maximum hypotension (%)
[3] = Rattus norvegicus, po, Dose 10 mg/kg, read-out: Maximum hypotension (%)

T1 sequence (O35505 whole entry): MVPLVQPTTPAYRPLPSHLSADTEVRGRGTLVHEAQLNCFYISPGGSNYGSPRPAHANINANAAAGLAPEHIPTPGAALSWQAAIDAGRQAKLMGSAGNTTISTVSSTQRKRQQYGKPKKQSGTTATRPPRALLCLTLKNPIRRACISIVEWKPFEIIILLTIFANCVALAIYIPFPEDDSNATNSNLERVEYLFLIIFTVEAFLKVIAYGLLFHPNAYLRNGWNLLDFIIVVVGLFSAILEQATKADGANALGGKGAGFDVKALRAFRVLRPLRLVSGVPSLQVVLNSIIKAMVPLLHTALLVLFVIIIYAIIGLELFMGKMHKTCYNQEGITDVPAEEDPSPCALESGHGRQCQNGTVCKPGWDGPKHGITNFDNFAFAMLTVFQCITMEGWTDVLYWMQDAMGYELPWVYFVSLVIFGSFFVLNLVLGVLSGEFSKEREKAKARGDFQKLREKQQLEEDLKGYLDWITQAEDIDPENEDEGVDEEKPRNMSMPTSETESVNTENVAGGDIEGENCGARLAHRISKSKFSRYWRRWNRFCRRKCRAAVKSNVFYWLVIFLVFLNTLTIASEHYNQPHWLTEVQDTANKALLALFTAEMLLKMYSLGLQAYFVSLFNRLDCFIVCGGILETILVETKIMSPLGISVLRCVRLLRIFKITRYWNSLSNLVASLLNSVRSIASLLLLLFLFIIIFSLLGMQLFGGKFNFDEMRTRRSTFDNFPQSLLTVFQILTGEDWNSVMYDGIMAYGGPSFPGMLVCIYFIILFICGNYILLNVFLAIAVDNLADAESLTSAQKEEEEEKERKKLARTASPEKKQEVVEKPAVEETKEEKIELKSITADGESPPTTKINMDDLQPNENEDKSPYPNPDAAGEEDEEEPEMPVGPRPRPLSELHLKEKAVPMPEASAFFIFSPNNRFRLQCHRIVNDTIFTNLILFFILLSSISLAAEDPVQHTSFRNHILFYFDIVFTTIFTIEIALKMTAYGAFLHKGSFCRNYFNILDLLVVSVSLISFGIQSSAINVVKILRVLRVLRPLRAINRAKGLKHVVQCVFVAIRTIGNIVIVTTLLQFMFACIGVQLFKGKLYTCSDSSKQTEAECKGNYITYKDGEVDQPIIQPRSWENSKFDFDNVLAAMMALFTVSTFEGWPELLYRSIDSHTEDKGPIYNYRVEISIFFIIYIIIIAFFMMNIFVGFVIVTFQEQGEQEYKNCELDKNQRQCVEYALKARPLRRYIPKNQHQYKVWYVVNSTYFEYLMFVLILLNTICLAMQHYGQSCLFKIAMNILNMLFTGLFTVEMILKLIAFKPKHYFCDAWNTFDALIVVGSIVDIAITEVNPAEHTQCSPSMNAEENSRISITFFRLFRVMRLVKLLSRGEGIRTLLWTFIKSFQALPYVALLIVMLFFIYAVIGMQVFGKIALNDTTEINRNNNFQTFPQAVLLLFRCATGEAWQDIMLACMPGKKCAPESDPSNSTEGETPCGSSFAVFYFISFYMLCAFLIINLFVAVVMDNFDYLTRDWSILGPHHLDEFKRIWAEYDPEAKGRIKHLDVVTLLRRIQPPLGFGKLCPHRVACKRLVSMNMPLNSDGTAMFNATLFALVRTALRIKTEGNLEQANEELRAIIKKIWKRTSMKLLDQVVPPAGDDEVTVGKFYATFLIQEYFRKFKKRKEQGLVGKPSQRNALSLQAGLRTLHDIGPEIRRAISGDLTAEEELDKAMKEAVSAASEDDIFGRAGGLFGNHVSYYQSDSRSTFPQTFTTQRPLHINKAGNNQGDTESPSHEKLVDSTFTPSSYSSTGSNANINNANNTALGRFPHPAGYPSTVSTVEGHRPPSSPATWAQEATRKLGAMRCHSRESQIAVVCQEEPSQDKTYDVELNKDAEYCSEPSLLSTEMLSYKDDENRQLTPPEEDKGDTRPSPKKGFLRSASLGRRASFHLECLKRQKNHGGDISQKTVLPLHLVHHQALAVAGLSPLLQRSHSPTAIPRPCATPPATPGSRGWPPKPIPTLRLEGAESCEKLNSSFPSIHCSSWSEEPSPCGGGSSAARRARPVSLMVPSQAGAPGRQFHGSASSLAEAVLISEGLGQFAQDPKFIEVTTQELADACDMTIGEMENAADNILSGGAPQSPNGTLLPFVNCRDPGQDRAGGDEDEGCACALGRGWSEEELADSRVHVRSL

Structure (SMILES)	Half-time of hypotension action ([1]; Dose 30 mg/kg)	change in vivo at 30 mg/kg [1, 2]	inhibition at 0.01 µg/mL (calcium channel)	Half-time of hypotension action ([1]; Dose 10 mg/kg)	change in vivo at 10 mg/kg [1, 3]	also measured
COc1ccc([C@@H]2Sc3cc(OCc4ccccc4)ccc3N(CCN(C)C)C(=O)[C@@H]2OC(C)=O)cc1 (racemic) [(±)-8-BzO-diltiazem, cis-3-acetoxy-8-benzyloxy-2,3-dihydro-5-(2-dimethylaminoethyl)-2-(4-methoxyphenyl)-1,5-benzothiazepin-4(5H)-one, reference compound]	7.7 h	-19%	55%			
COc1ccc([C@@H]2Sc3cc(Oc4ccc(F)cc4)ccc3N(CCN(C)C)C(=O)[C@@H]2OC(C)=O)cc1 [Example 14, (2S, 3S)-3-Acetoxy-5-(2-dimethylaminoethyl)-8-(4-fluoro-phenoxy)-2,3-dihydro-2-(4-methoxyphenyl)-1,5-benzothiazpin-4(5H)-one]			94%	12.7 h	-37%	
COc1ccc([C@@H]2Sc3cc(Oc4ccc(F)cc4)ccc3N(CCN(C)C)C(=O)[C@@H]2OC(C)=O)cc1 (racemic) [Example 22, (±)-cis-3-Acetoxy-5-(2-dimethylaminoethyl)-8-(4-fluoro-phenoxy)-2,3-dihydro-2-(4-methoxyphenyl)-1,5-benzothiazepin-4(5H)-one]			52%			
CC(=O)O[C@H]1C(=O)N(CCN(C)C)c2ccc(Oc3ccccc3)cc2S[C@H]1c1ccc2c(c1)OCO2 (relative stereo) [Example 6, (±)-Cis-3-acetoxy-5-(2-dimethylaminoethyl)-2,3-dihydro-2-(3,4-methylenedioxyphenyl)-8-phenoxy-1,5-benzothiazepin-(5H)-one]			53%			
COc1ccc([C@@H]2Sc3cc(Cc4ccccc4)ccc3N(CCN(C)C)C(=O)[C@@H]2OC(C)=O)cc1 [Example 18]			77%	13.8 h	-32%	
COc1ccc([C@@H]2Sc3cc(Oc4ccccc4)ccc3N(CCN(C)C)C(=O)[C@@H]2OC(C)=O)cc1 (racemic) [Example 2, (±)-Cis-3-acetoxy-5-(2-dimethylaminoethyl)-2,3-dihydro-2-(4-methoxyphenyl)-8-phenoxy-1,5-benzothiazepin-4(5H)-one]	13.9 h	-34%	58%			
COc1ccc([C@@H]2Sc3ccccc3N(CCN(C)C)C(=O)[C@@H]2OC(C)=O)cc1 [(+)-diltiazem, (2, 3S)-cis-3-acetoxy-2,3-dihydro-5-(2-dimethylaminoethyl)-2-(4-methoxyphenyl)-1,5-benzothiazepin-4(5H)-one, reference compound]			20%	3.3 h	-15%	
COc1ccc([C@@H]2Sc3cc(Oc4ccccc4)ccc3N(CCN(C)C)C(=O)[C@@H]2OC(C)=O)cc1F [Example 16, (2S, 3S)-3-Acetoxy-5-(2-dimethylaminoethyl)-2-(3-fluoro-4-methoxyphenvl)-2,3-dihydro-8-phenoxy-1,5-benzothiazepin-4(5H)-one]			80%			Half-time of hypotension action ([1]; Dose 3 mg/kg): 9.4 h; change in vivo at 3 mg/kg ([1]; Rattus norvegicus, po, Dose 3 mg/kg, read-out: Maximum hypotension (%)): -21%
COc1ccc([C@@H]2Sc3ccccc3N(CCN(C)C)C(=O)[C@@H]2OC(C)=O)cc1 (relative stereo) [(±)-diltiazem, reference compound]	3.8 h	-17%	11%			
COc1ccc([C@@H]2Sc3cc(OC)ccc3N(CCN(C)C)C(=O)[C@@H]2OC(C)=O)cc1 (relative stereo) [(±)-8-MeO-diltiazem, cis-3-acetoxy-8-methoxy-2,3-dihydro-5-(2-dimethylaminoethyl)-2-(4-methoxyphenyl)-1,5-benzotbiazepin-4(5E,uns/H/ )-one, reference compound]	5.8 h	-35%	67%			
CCN(CC)CCN1C(=O)[C@H](OC(C)=O)[C@H](c2ccc(OC)cc2)Sc2cc(Oc3ccccc3)ccc21 [Example 36, (2S, 3S)-3-Acetoxy-5-(2-diethylaminoethyl)-2,3-dihydro-2-(4-methoxyphenyl)-8-phenoxy-1,5-benzothiazepin-4(5H)-one]			80%	8.2 h	-29%	
COc1ccc(Oc2ccc3c(c2)S[C@@H](c2ccc(OC)cc2)[C@@H](OC(C)=O)C(=O)N3CCN(C)C)cc1 (relative stereo) [Example 28, (±)-cis-3-Acetoxy-5-(2-dimethylaminoethyl)-2,3-dihydro-8-(4-methoxyphenoxy)-2-(4-methoxyphenyl)-1,5-benzothlazepin-4-(5H)-one]			59%			
COc1ccc([C@@H]2Sc3cc(Cl)ccc3N(CCN(C)C)C(=O)[C@@H]2OC(C)=O)cc1 (relative stereo) [(±)-8-Cl-diltiazem, cis-3-acetoxy-8-chloro-2,3-dihydro-5-(2-dimethylaminoethyl)-2-(4-methoxyphenyl)-1,5-benzothiazepin-4(5E,uns/H/ )-one, reference compound]	6.1 h	-32%	56%			
COc1ccc([C@@H]2Sc3cc(Oc4ccc5c(c4)OCO5)ccc3N(CCN(C)C)C(=O)[C@@H]2OC(C)=O)cc1 [Example 34, (2S, 3S)-3-Acetoxy-5-(2-dimethylaminoethyl)-2,3-dihydro-2-(4-methoxyphenyl)-8-(3,4-methylenedioxyphenoxy)-1,5-benzothiazepin-4(5H)-one]			88%			
COc1ccc([C@@H]2Sc3cc(Oc4ccccc4)ccc3N(CCN(C)C)C(=O)[C@@H]2OC(C)=O)cc1F (racemic) [Example 4, (±)-Cis-3-acetoxy-5-(2-dimethylaminoethyl)-2-(3-fluoro-4-methoxyphenyl)-2,3-dihydro-8-phenoxy-1,5-benzothiazepin-4(5H)-one]	16.0 h	-36%	84%			
COc1ccc([C@@H]2Sc3cc(Oc4ccc(Cl)cc4)ccc3N(CCN(C)C)C(=O)[C@@H]2OC(C)=O)cc1 (relative stereo) [Example 30, (±)-cis-3-Acetoxy-8-(4-chlorophenoxy)-2,3-dihydro-5-(2-dimethylaminoethyl)-2-(4-methoxyphenyl)-1,5-benzothiazepin-4-(5H)-one]			56%			
COc1ccc([C@@H]2Sc3cc(Cc4cccs4)ccc3N(CCN(C)C)C(=O)[C@@H]2OC(C)=O)cc1 [Example 20, (2S, 3S)-3-Acetoxy-5-(2-dimethylaminoethyl)-2,3-dihydro-2-(4-Methoxyphenyl)-8-(2-thienylmethyl)-1,5-benzothiazepin-4(5H)-one]			57%	8.5 h	-24%	
COc1ccc([C@@H]2Sc3cc(Cc4ccc(F)cc4)ccc3N(CCN(C)C)C(=O)[C@@H]2OC(C)=O)cc1 [Example 38, (2S, 3S)-3-Acetoxy-5-(2-dimethylaminoethyl)-8-(4-fluoro-benzyl)-2,3-dihydro-2-(4-methoxyphenyl)-1,5-benzothiazepin-4(5H)-one]			69%	11.8 h	-32%	
COc1ccc([C@@H]2Sc3cc(Oc4ccc(F)cc4)ccc3N(CCN(C)C)C(=O)[C@@H]2OC(C)=O)cc1F (racemic) [Example 24, (±)-cis-3-Acetoxy-5-(2-dimethylaminoethyl)-2-(3-fluoro-4-methoxyphenyl)-8-(4-fluorophenoxy)-2,3-dihydro-1,5-benzothiazepin-4(5H)-one]			93%			
